For orientation: EC50 means the concentration needed to bring the measured effect to its halfway point. In general, CC50 refers to the concentration giving 50% cytotoxicity.

For series [1], the system named is HBV. The experiment in a line: Anti-HBV activity, HepG2.117 inducibly HBV producing cell line (Tet-off), intracellular HBV DNA by realtime PCR. The class given is cell-based. As to conditions: Hepatitis B virus, HepG2.117, 72 h, HepG2.117 cells, 3 days of treatment, intracellular HBV DNA; read-out: HepG2 117 EC50.
A short description of series [2]: Cytotoxicity in HepG2 cells, Resazurin viability assay. As to conditions: human, HepG2 cells, HepG2 4 days CC50 (μM), incubated for 4 days, Resazurin assay. (In general: Resazurin is reduced to fluorescent resorufin, in cell work by metabolically active cells.)
Series [3] has as its system HBV. Briefly: Anti-HBV activity, HepG2.2.15 stable transfected cell line, HBV DNA from secreted virions by realtime PCR. Format: cell-based. As to conditions: Hepatitis B virus, HepG2.2.15, 144 h, HepG2.2.15 cells, 6 days of treatment, HBV DNA from secreted virions; read-out: HepG2 2.15 EC50.

Regarding `C[C@@H](NS(=O)(=O)c1cn(C)c(C(=O)Nc2ccc(F)c(C(F)F)c2F)c1F)C(F)(F)F` [Compound 287, N-[3-(difluoromethyl)-2,4-difluoro-phenyl]-3-fluoro-1-methyl-4-[[(1R)-2,2,2-trifluoro-1-methyl-ethyl]sulfamoyl]pyrrole-2-carboxamide], the EC50 in the series with HBV [1] turned out to be 5 nM; in the series with HBV [3], 4 nM. In addition, in series [2], the cytotoxic concentration (CC50) at 4 days was over 25 µM.
Taken in the same sequence, the figures for `Cc1cc(NC(=O)c2c(C)c(S(=O)(=O)NC3(C)COC3)cn2C)ccc1F` [Compound 90, N-(4-Fluoro-3-methylphenyl)-1,3-dimethyl-4-[(3-methyloxetan-3-yl)sulfamoyl]-1H-pyrrole-2-carboxamide] were 30 nM, 50 nM and over 25 µM.
As for `Cc1cc(NC(=O)c2c(C)c(S(=O)(=O)NC3(C)COC3)c(C)n2C)ccc1F` [Compound 88, N-(4-Fluoro-3-methylphenyl)-1,3,5-trimethyl-4-[(3-methyloxetan-3-yl)sulfamoyl]-1H-pyrrole-2-carboxamide], the EC50 amounted to 30 nM in the series with HBV [1] and 20 nM with HBV [3]. Moreover, in series [2], the half-maximal cytotoxic concentration (CC50) at 4 days was over 25 µM.
As for `C[C@@H](NS(=O)(=O)c1cc(C(=O)Nc2cc(F)c(F)c(Cl)c2)n(C)c1)C(F)(F)F` [Compound 60, N-(3-chloro-4,5-difluoro-phenyl)-1-methyl-4-[[(1R)-2,2,2-trifluoro-1-methyl-ethyl]sulfamoyl]pyrrole-2-carboxamide], the EC50 in the series with HBV [1] came out at 30 nM; in the series with HBV [3] it was 20 nM. Also, it took 24.1 µM to reach half-maximal cytotoxicity in series [2] (CC50 at 4 days).
Taken in the same sequence, the figures for `CNC(=O)C(C)(C)NS(=O)(=O)c1cc(C(=O)Nc2ccc(F)c(C)c2)n(C)c1` [Compound 62, 4-[[1,1-dimethyl-2-(methylamino)-2-oxo-ethyl]sulfamoyl]-N-(4-fluoro-3-methyl-phenyl)-1-methyl-pyrrole-2-carboxamide] were 140 nM, 270 nM and over 25 µM.
For `Cn1cc(S(=O)(=O)NC2(C)COC2)cc1C(=O)Nc1ccc(Cl)c(F)c1` [Compound 84], the concentration for a half-maximal effect (EC50) in the series on HBV [1] stood at 610 nM; with HBV [3], 460 nM. Besides, the 50% cytotoxic concentration (CC50) at 4 days in series [2] is over 25 µM.
For the molecule `Cc1c(S(=O)(=O)NC2(C)COC2)cn(C)c1C(=O)Nc1ccc(F)c(Cl)c1` [Compound 149, N-(3-Chloro-4-fluorophenyl)-1,3-dimethyl-4-[(3-methyloxetan-3-yl)sulfamoyl]-1H-pyrrole-2-carboxamide], the EC50 in the series on HBV [1] is 30 nM; in the series with HBV [3], 40 nM. In series [2], this molecule yielded a CC50 at 4 days of over 25 µM.
Consider `Cn1cc(S(=O)(=O)NC(C)(C)C(F)(F)F)cc1C(=O)Nc1ccc(F)c(F)c1` [Compound 95, N-(3,4-Difluorophenyl)-1-methyl-4-[(2,2,2-trifluoro-1,1-dimethylethyl)-sulfamoyl]-1H-pyrrole-2-carboxamide], for which the EC50 in the series with HBV [1] stood at 60 nM; in the series on HBV [3], 130 nM. This molecule had a CC50 at 4 days in series [2] of over 25 µM.
With `C[C@@H](NS(=O)(=O)c1cc(C(=O)Nc2ccc(F)c(Br)c2)n(C)c1)C(F)(F)F` [Compound 124, N-(3-Bromo-4-fluorophenyl)-1-methyl-4-{[(1R)-2,2,2-trifluoro-1-methylethyl]sulfamoyl}-1H-pyrrole-2-carboxamide], the EC50 in the series with HBV [1] and in the series on HBV [3] was 40 nM throughout. Further, the CC50 at 4 days in series [2] was over 25 µM.
Turning to `Cn1cc(S(=O)(=O)NC2(C(F)(F)F)CC2)cc1C(=O)Nc1ccc(F)c(C#N)c1` [Compound 227, N-(3-Cyano-4-fluorophenyl)-1-methyl-4-{[1-(trifluoromethyl)cyclopropyl]sulfamoyl}-1H-pyrrole-2-carboxamide], the EC50 in the series with HBV [1] is 40 nM; in the series with HBV [3], 20 nM. This molecule had a CC50 at 4 days in series [2] of over 25 µM.
For `Cc1c(S(=O)(=O)N[C@H](C)C(F)(F)F)cc(C(=O)Nc2ccc(F)c(F)c2)n1C` [Compound 139, N-(3,4-Difluorophenyl)-1,5-dimethyl-4-{[(1R)-2,2,2-trifluoro-1-methylethyl]sulfamoyl}-1H-pyrrole-2-carboxamide], the values for the EC50 in the series on HBV [1] and with HBV [3] were 30 nM and 50 nM, respectively. The same molecule returned a CC50 at 4 days in series [2] of over 25 µM.
In the case of `CC(NS(=O)(=O)c1cc(C(=O)Nc2ccc(F)c(C#N)c2)n(C)c1)C(F)F` (single isomer, unassigned) [Compound 200a, N-(3-Cyano-4-fluorophenyl)-4-{[2,2-difluoro-1-methylethyl]sulfamoyl}-1-methyl-1H-pyrrole-2-carboxamide], the EC50 with HBV [1] was 50 nM; in the series with HBV [3], 100 nM. In series [2], this molecule came in with a CC50 at 4 days of over 25 µM.
For `Cn1cc(S(=O)(=O)NC2(C)COC2)cc1C(=O)Nc1ccc(F)c(C#N)c1` [Compound 50, N-(3-cyano-4-fluorophenyl)-1-methyl-4-[(3-methyloxetan-3-yl)sulfamoyl]-1H-pyrrole-2-carboxamide], the EC50 in the series on HBV [1] worked out at 50 nM; in the series with HBV [3], 70 nM. Further, the CC50 at 4 days in series [2] was over 25 µM.
As to `Cn1cc(S(=O)(=O)NC2(C(F)(F)F)CCC2)c(Cl)c1C(=O)Nc1ccc(F)c(C#N)c1` [Compound 221, 3-Chloro-N-(3-cyano-4-fluorophenyl)-1-methyl-4-{[1-(trifluoro-methyl)cyclobutyl]sulfamoyl}-1H-pyrrole-2-carboxamide], the EC50 with HBV [1] came to 6 nM; in the series on HBV [3], 7 nM. Further, the cytotoxic concentration (CC50) at 4 days in series [2] was over 25 µM.
For the molecule `Cc1cc(NC(=O)c2cc(S(=O)(=O)NC3(C)COC3)cn2C)ccc1C#N` [Compound 83], the EC50 with HBV [1] was 1350 nM; in the series with HBV [3] it was over 1000 nM. For the same molecule, the 50% cytotoxic concentration (CC50) at 4 days in series [2] was over 25 µM.
Turning to `Cc1c(S(=O)(=O)NC(C)C)cn(C)c1C(=O)Nc1ccc(F)c(Cl)c1F` [Compound 208, N-(3-Chloro-2,4-difluorophenyl)-1,3-dimethyl-4-[(1-methylethyl)sulfamoyl]-1H-pyrrole-2-carboxamide], the EC50 in the series with HBV [1] is 660 nM; with HBV [3] it was 200 nM. Moreover, in series [2], the CC50 at 4 days is over 25 µM.
`Cc1cc(NC(=O)c2cc(S(=O)(=O)NC3(C)COC3)cn2C)ccc1F` [Compound 5, N-(4-fluoro-3-methyl-phenyl)-1-methyl-4-[(3-methyloxetan-3-yl)-sulfamoyl]pyrrole-2-carboxamide]: the EC50 with HBV [1] is 20 nM; in the series on HBV [3] it was 30 nM. In series [2], the CC50 at 4 days was over 25 µM.
Taken in the same sequence, the figures for `CC[C@H](NS(=O)(=O)c1cc(C(=O)Nc2ccc(F)c(C#N)c2)n(C)c1)C(F)(F)F` [Compound 239, N-(3-Cyano-4-fluorophenyl)-1-methyl-4-{[(1S)-1-(trifluoromethyl)-propyl]sulfamoyl}-1H-pyrrole-2-carboxamide] were 10 nM, 20 nM and over 25 µM.
The matching figures for `Cc1c(S(=O)(=O)N[C@H](C)C(F)(F)F)c(C#N)c(C(=O)Nc2ccc(F)c(C#N)c2)n1C` [Compound 316, 3-cyano-N-(3-cyano-4-fluoro-phenyl)-1,5-dimethyl-4-[[(1R)-2,2,2-trifluoro-1-methyl-ethyl]sulfamoyl]pyrrole-2-carboxamide]: 50 nM, 50 nM and over 25 µM.

Values taken from US9884818B2, “Sulphamoylpyrrolamide derivatives and the use thereof as medicaments for the treatment of hepatitis B” (Janssen Sciences Ireland UC, priority 2013, dated 2018).
